In PMC12889028, “Discovery and biological evaluation of novel N-aryl-N′-methylbenzodrazides against Schistosoma japonicum in vitro and in vivo” (Microbiology Spectrum, 2025):
Read-outs that look alike come from different tables or passages of the source.

Key:
[1] = system: S. japonicum (Chinese strain); assay: In vivo antischistosomal assay in infected mice (worm burden, worm morphology, liver eggs); parameters: species or system Schistosoma japonicum in ICR mice; conditions: for Morphology of worms after treatment in vivo, adult stage / Worm burden reduction (WBR), Adult / Number of worms, Adult / Morphology of worms after treatment in vivo, juvenile stage / Worm burden reduction (WBR), Juvenile / Number of worms, Juvenile: mice, oral 100 mg/kg/day for 5 days; for Worm burden reduction (WBR), Adult: adult stage (from 35 dpi); for Worm burden reduction (WBR), Adult / Worm burden reduction (WBR), Juvenile: 100 mg/kg/day; for Number of worms, Adult: adult stage (treatment from 35 dpi, sacrifice 45 dpi); for Worm burden reduction (WBR), Juvenile: juvenile stage (from 9 dpi); for Number of worms, Juvenile: juvenile stage (treatment from 9 dpi, sacrifice 45 dpi); for Hepatic egg burden, adult-stage treatment: treatment in adult stage
Description: (§1) Lead compounds 5, 18, and 41 (100 mg/kg) were orally administered once daily for 5 consecutive days to infected mice (n = 6/group) during two therapeutic windows: (i) Juvenile stage: treatment initiated at 9 dpi, terminal sacrifice at 45 dpi; (ii) adult stage: treatment initiated at 35 dpi, terminal sacrifice at 45 dpi. Positive controls received praziquantel (PZQ, 100 mg/kg/day ×5 days); negative controls received PBS (0.3 mL). Mice treated at 9 dpi were euthanized 36 days post-treatment; those treated at 35 dpi were euthanized 10 days post-treatment. Adult worms were perfused from the hepatic portal system and mesenteric veins. Parasite burden was quantified by worm enumeration, and worm burden reduction (WBR) was calculated:
WBR (%)=[1−Mean worm count (treated) / Mean worm count (control)]×100% .

[2] = Serum hepatic/renal function profiling of infected, treated mice; format: in vivo, ICR mice; conditions: for Serum GGT: normal range 1–15 U/L; for Serum TBIL: normal range 1.7–15.4 µM; for Serum BUN: normal range 4.9–10.4 mM; for Serum ALT: normal range 28–132 U/L; for Serum AST: normal range 59–247 U/L; for Nephrotoxicity: infected treated mice, judged from BUN
Description: Following maturation, Schistosoma parasites initiate oviposition, with a proportion of eggs migrating via the circulatory system to hepatic tissues. This ectopic deposition induces granuloma formation that subsequently elicits a cascade of immune-mediated pathologies, ultimately compromising hepatic and renal functions in murine models. To evaluate therapeutic efficacy, retro-orbital blood sampling was performed for comprehensive hepatic function profiling, enabling systematic assessment of pharmacological impacts on schistosomiasis-associated organ damage.
as §1, with “calculated: […]” for “calculated:”

healthy mice = assay: Acute oral toxicity; format: in vivo; conditions: single oral dose, healthy ICR mice
Description: (§2) ICR mice (n = 10/group), aged 6 to 8 weeks, received a single oral dose of compounds 5, 18, and 41 (732–2,234 mg/kg). LD50 values were determined by Probit analysis (SPSS 26.0).

Acute oral toxicity = format: in vivo; conditions: ICR, mouse, in vivo, po, single oral dose, healthy ICR mice
Description: as §2

[3] = system: HepG2 (human liver cancer) cells; assay: Cytotoxicity MTT assay, HepG2; format: cell-based; conditions: Homo sapiens, HepG2, 48 h incubation
Description: (§3) The cytotoxicity of compounds 5, 18, and 41 against human liver cancer (HepG2) and human breast cancer (MCF-7) cell lines in vitro was evaluated using the MTT assay, with cisplatin as a positive control. Cells were plated into 96-well plates and incubated in 100 μL of Dulbecco’s modified Eagle’s medium for 24 h. Test compounds at specified final concentrations were then added to the culture medium. After 48 h incubation, MTT dye (10 μL, 0.5 mg/mL) was added, and cells were incubated for an additional 4 h at 37°C in 5% CO2. Formazan crystals were dissolved in 100 μL DMSO per well, and absorbance at 570 nm (OD570) was measured using an ELx800 microplate reader (Bio-Tek, Winooski, VT, USA) with background subtraction. Cytotoxicity was expressed as IC50 (the concentration causing 50% reduction in cell growth compared to untreated controls). Experiments were performed in triplicate, with results presented as mean ± standard deviation.

[4] = system: adult worms of S. japonicum (Chinese strain); assay: microbe, parasite or virus in culture; conditions: for mortality at 100 µM / LC50: Schistosoma japonicum; for LC50: read-out: LC50 (72 h)
Description: S. japonicum cercariae (Chinese strain) were acquired from infected Oncomelania hupensis snails (Wuxi Insect Vector Biology Co., Ltd., China) ([28]). ICR mice (6–8 weeks, 22–25 g; Hunan SJA Laboratory Animal Co., Ltd., China) were percutaneously infected via abdominal exposure to 60 ± 5 cercariae. Adult schistosomes were perfused from the hepatic portal system at 35 dpi using a modified Duvall and DeWitt method ([29]). Animals were housed under controlled conditions (22°C ± 1°C, 12 h light/dark cycle) with ad libitum access to feed and water.
Adult S. japonicum worms isolated from ICR mice were maintained in sterile culture medium (2.0 mL) comprising 77% RPMI 1640 (Lanzhou Bailing Biotech Co., Ltd.; pH 7.5, HEPES-buffered), 20% heat-inactivated fetal bovine serum (Lanzhou Minhai Bio-Engineering Co., Ltd.), and 3% penicillin-streptomycin (100×; 10,000 U/mL penicillin, 10,000 μg/mL streptomycin; New Cell & Molecular Biotech Co., Ltd., China). Incubation was performed at 37°C under 5% CO2. Test compounds were dissolved in DMSO as 0.1 M stock solutions; 2.0 μL aliquots were added to worm-containing media (final concentration: 100 μM in 0.1% DMSO). Negative controls received equivalent volumes of vehicle (0.1% DMSO in RPMI 1640). Parasite viability (motor activity, tegumental integrity, survival) was assessed every 12 h for 72 h using an Olympus CKX53 inverted microscope (n ≥ 3 independent replicates).

[5] = system: MCF-7 (human breast cancer) cells; assay: Cytotoxicity MTT assay, MCF-7; format: cell-based; conditions: Homo sapiens, MCF7, 48 h incubation
Description: as §3

[6] = infected mice treated in adult stage
[7] = infected mice treated in juvenile stage
[8] = 24 h, read-out: Mortality (%) 24 h, 100 μM, 24 h, adult worms in vitro
[9] = 36 h, read-out: Mortality (%) 36 h, 100 μM, 36 h, adult worms in vitro
[10] = 48 h, read-out: Mortality (%) 48 h, 100 μM, 48 h, adult worms in vitro
[11] = 72 h, read-out: Mortality (%) 72 h, 100 μM, 72 h, adult worms in vitro

Row | SMILES | Morphology of worms after treatment in vivo, adult stage [1] | Worm burden reduction (WBR), Adult [1] [%] | Number of worms, Adult [1] | Morphology of worms after treatment in vivo, juvenile stage [1] | Worm burden reduction (WBR), Juvenile [1] [%] | Number of worms, Juvenile [1] | Hepatic egg burden, adult-stage treatment ([1]; mouse livers at 45 dpi) | Serum GGT [2, 6] [U/L] | Serum TBIL [2, 6] [µM] | Serum BUN [2, 6] [mM] | Serum ALT [2, 6] [U/L] | Serum AST [2, 6] [U/L] | Serum GGT [2, 7] [U/L] | Serum TBIL [2, 7] [µM] | Serum BUN [2, 7] [mM] | Serum ALT [2, 7] [U/L] | Serum AST [2, 7] [U/L] | Nephrotoxicity [2] | LD50 (healthy mice) | LogLD50 (healthy mice) | further results
1 | CN(NC(=O)c1ccc(Br)cc1)c1ccc(C(F)(F)F)c(Cl)c1 [Compound 41] | making the males thicker and shorter | 30 | 31 | marked stunting of male schistosomes | 30 | 28 | comparable egg burdens to untreated controls | 0.87 ± 0.32 | 7.95 ± 2.11 | 7.79 ± 2.11 | 274.67 ± 186.53 | 453.33 ± 217.99 | 1.60 ± 0.17 | 3.61 ± 1.39 | 6.18 ± 4.85 | 364.00 ± 329.78 | 557.67 ± 630.32 | without observable nephrotoxicity | >2,000 mg/kg | >3.30 | LD50 (Acute oral toxicity): 1400 mg/kg; IC50 [3]: 20.7 ± 1.36 µM; mortality at 100 µM [4, 8]: 35%; mortality at 100 µM [4, 9]: 70%; mortality at 100 µM [4, 10]: 80%; LC50 ([4]; 72 h): 61.4 ± 1.8 µM; mortality at 100 µM [4, 11]: 100%; IC50 [5]: 39.2 ± 3.53 µM
2 | CN(NC(=O)c1ccc(Br)cc1)c1ccc(Cl)c(Cl)c1 [Compound 18] | making the males thicker and shorter | 20 | 35 | marked stunting of male schistosomes | 40 | 24 | comparable egg burdens to untreated controls | 6.73 ± 9.70 | 18.73 ± 6.05 | 8.68 ± 1.22 | 322.33 ± 239.58 | 783.67 ± 457.47 | 0.93 ± 0.81 | 2.98 ± 1.03 | 12.53 ± 1.31 | 546.00 ± 82.15 | 673.67 ± 153.58 | transient nephrotoxicity | >2,000 mg/kg | >3.30 | Hepatic egg burden, juvenile-stage treatment ([1]; mouse livers at 45 dpi, treatment in juvenile stage): significantly reduced egg burdens; LD50 (Acute oral toxicity): 1400 mg/kg; IC50 [3]: 22.6 ± 1.48 µM; Mortality (%) 72 h ([4]; 100 μM, 72 h, adult worms in vitro): 100%; mortality at 100 µM [4, 8]: 10%; mortality at 100 µM [4, 9]: 50%; mortality at 100 µM [4, 10]: 80%; LC50 ([4]; 72 h): 83 ± 1.9 µM; mortality at 100 µM [4, 11]: > 90%; IC50 [5]: 40.9 ± 2.82 µM
